Results on six molecules are retold here after patent publication US7053228B2, “Sulfur analogues of 21-hydroxy-6,19-oxidoprogesterone (21OH-6OP) for treating excess of glucocorticoids” (Applied Research Systems ARS Holding N.V., priority 2000, dated 2006).

Each structure is given as a SMILES string.

The test system of test [1] is rat thymocytes. The experiment in a line: Apoptosis in rat thymocytes (annexin V-FITC/propidium iodide flow cytometry). To be noted: early + late apoptosis. The class given is cell-based. On the procedure: On this basis, the antiglucocorticoid properties of the compounds of the present invention may be determined by examining the decrease/increase of apoptosis in rat thymocytes after treatment with a given test compounds. Regulation of apoptosis was analyzed by flow cytometry. The method consists of quantifying fluorometrically the apoptotic cells in the sample. In normal viable cells phosphatidyl serine (PS) is located on the cytoplasmic surface of the cell membrane. Upon induction of apoptosis, rapid alteration in the organization of phospholipids in most cell types occurs leading to exposure of PS on the cell surface. In vitro detection of externalized PS may be achieved through interaction with the anticoagulant annexin V. In the presence of calcium, rapid high affinity binding of annexin V to PS occurs. PS translocation to the cell surface precedes nuclear breakdown, DNA fragmentation and the appearance of most apoptosis-associated molecules making annexin V binding a marker of early-stage apoptosis. In the assay used, a fluorescein isothiocyanate (FITC) conjugate of annexin V is used allowing detection of apoptosis by flow cytometry. Since membrane permeabilization is observed in necrosis, necrotic cells will also bind annexin V-FITC. Propidium iodide is used to distinguish between viable and early apoptotic cells thus the latter will be labeled only with FITC while late apoptotic cells will be labeled with FITC and propidium iodide. An annexin V-FITC apoptosis detection kit from Oncogen Research Products (cat. No. PF032) was used following the RAPID protocol recommended by the manufacturer. Briefly, after incubation with various compounds (see below), cells were centrifuged at 2000 rpm for 5 min, the media removed and cell pellets washed with phosphate buffered saline (PBS): Cells were resuspended in the binding buffer to a density of 1×10^6 cells/ml. Binding reagent (10 μl) and annexin V/FITC (1.25 μl) were added and cells incubated for 15 min at room temperature in the dark. The cells were centrifuged and to the pellet were added binding buffer (0.5 ml) and propidium iodide (10 μl). Samples were analyzed by flow cytometry in a Cytoron Absolute cytometer (Ortho Diagnostic Systems). […] The cytograms obtained are presented in FIGS. 3a-3f, where GR-FL represents fluorescence from FITC and RD-FL represents fluorescence from propidium iodide. […] Early apoptotic cells with exposed PS but intact cell membranes appear in the […] quadrant. Necrotic or late apoptotic cells appear in the upper right quadrant. A small percentage of normal cell death may also occur, none is observed in this case.
For orientation: A flow cytometer gives signals particle by particle.

Test [2] addresses T1, glucocorticoid receptor (Homo sapiens, UniProt P04150).
T1 construct: expressed in transfected cells; host or cells: Cos-1
T1 sequence (P04150 1-777): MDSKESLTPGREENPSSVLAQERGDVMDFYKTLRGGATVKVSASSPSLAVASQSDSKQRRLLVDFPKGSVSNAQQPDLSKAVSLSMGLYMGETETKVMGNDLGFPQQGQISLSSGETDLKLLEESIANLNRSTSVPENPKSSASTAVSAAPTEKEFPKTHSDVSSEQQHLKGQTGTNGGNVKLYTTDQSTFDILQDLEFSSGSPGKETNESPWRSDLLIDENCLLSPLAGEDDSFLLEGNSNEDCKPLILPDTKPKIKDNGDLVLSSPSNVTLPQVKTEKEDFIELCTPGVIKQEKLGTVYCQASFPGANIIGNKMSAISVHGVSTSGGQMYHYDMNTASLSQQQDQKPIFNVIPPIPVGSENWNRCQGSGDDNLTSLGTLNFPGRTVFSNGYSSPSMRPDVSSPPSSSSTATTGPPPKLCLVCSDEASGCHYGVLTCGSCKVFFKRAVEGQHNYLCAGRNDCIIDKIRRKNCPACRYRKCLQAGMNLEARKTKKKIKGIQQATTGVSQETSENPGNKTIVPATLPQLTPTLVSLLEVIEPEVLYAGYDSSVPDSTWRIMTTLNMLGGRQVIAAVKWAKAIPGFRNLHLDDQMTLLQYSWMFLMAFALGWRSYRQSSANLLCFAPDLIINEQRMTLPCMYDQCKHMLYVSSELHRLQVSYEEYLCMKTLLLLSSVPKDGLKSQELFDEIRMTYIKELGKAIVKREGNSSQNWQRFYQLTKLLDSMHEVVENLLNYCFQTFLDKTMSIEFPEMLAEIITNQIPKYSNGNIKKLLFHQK
As to the kind of experiment: Reporter gene assay pMMTV-Luc expression in Cos-1 line. The class given is cell-based. To be noted: test compound 10^−6 M with dexamethasone; Cos-1 cells transfected with pMMTV-Luc and pRSV-GR. On the procedure: vol. 7 No. 10 (1989). The assay may discriminate between gluco/antigluco- and progestin/antiprogestin-effects of the test compounds. Cells were grown on 100 mm plates with 8 ml D-MEM (Dubecco's modified Eagle's medium Gibco BRL), supplemented with 10% bovine fetal serum (Bioser), 3,7 g/l sodium bicarbonate and 100 IU/penicilin G, 100 μg/ml streptomycin, 0,25 μg amphotericin B in an atmosphere in an of 5% CO2 at 37° C. Cells were treated with 0,25% trypsin, 1 mM EDTA and were plated at a density of 5×10^5 cells/plate, in 60 mm plates. Cos-1 cells were transfected with a construct encoding the glucocorticoid receptor, and a construct with the luciferase gene under the MMTV promoter. Cells were transfected by precipitation with calcium phosphate adding 25 μl of a 2M CaCl2 solution to a solution containing 3 pmoles of vectors pMMTV-Luc and pRSV-GR encoding luciferase and the glucocorticoid receptor, respectively. […]
The transfection mixture was added dropwise to an equal volume of transfection buffer 2×BBS, containing phosphate. […] From the supernatant the luciferase activity was determined. […] Luciferase expression was assayed employing a Promega kit in partial obscurity and measured with a Junior luminometer (EG&G Berthold, Germany).
β Galactosidase was determined by hydrolysis of a phenyl galactoside. […]
Background: Reporter assays use an easily measured gene product as a stand-in for the process of interest.

For test [3], the target named is T2, uterus-PR (Homo sapiens, UniProt P06401).
T2 construct: host or cells: uterus
T2 sequence (P06401 1-933): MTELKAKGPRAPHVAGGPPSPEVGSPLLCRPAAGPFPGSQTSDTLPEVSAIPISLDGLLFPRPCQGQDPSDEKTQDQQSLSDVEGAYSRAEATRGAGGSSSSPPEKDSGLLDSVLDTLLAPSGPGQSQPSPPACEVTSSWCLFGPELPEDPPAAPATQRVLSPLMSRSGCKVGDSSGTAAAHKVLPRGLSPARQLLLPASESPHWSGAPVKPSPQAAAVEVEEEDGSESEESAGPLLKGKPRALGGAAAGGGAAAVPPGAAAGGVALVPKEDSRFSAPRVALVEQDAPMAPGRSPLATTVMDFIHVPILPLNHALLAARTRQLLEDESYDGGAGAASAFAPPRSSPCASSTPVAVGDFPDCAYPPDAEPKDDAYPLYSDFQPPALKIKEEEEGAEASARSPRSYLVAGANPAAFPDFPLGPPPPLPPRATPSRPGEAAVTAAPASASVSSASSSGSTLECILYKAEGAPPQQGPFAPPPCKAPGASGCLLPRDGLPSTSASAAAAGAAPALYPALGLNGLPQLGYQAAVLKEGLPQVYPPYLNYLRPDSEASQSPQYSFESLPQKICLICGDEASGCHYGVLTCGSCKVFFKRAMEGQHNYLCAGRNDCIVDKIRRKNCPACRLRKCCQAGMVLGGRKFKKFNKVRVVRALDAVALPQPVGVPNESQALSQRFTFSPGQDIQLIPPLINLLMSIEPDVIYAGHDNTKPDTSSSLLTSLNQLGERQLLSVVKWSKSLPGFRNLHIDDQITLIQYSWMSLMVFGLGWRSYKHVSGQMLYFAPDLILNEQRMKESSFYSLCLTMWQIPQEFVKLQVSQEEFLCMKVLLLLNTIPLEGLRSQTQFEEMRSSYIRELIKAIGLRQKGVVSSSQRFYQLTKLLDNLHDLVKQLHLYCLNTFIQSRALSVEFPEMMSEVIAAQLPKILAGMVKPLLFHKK
To be noted: cited from earlier work.

Test [4] concerns the target T3, kidney-MR (Homo sapiens, UniProt P08235).
T3 construct: host or cells: kidney
T3 sequence (P08235 1-984): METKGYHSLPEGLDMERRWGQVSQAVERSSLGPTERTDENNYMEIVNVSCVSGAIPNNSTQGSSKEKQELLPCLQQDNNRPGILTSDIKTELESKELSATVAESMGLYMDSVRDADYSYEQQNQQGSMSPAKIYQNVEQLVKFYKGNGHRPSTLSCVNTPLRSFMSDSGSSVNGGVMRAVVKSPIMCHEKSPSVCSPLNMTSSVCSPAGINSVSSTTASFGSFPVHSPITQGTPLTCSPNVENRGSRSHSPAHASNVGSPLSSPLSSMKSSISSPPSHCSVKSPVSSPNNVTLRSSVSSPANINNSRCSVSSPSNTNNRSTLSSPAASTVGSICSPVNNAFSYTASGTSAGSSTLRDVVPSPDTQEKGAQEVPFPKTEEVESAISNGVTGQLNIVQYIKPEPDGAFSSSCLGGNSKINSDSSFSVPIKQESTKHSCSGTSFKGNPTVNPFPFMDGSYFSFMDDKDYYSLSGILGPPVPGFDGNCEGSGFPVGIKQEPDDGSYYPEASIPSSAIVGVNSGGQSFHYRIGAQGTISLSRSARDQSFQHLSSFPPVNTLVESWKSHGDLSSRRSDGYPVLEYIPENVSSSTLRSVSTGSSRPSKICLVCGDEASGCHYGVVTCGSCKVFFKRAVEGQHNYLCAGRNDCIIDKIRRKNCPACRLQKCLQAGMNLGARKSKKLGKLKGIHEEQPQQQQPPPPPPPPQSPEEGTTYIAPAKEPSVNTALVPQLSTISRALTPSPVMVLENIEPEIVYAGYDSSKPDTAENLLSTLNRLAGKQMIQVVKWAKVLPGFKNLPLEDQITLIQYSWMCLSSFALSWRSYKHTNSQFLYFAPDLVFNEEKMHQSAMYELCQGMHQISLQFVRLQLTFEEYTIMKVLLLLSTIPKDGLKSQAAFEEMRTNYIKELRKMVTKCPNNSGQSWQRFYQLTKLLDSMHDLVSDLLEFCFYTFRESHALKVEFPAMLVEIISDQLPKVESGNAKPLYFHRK
To be noted: cited from earlier work.

[5] abbreviates: Dexamethasone 10^−8 M + test compound 10^−5 M, 4 h at 37° C.

As to `C[C@]12CCC3C(C[C@H]4SC[C@@]35CCC(=O)C=C45)C1CCC2C(=O)CO` (stereo partly drawn) [Compound 3, 21-Hydroxy-6,19-sulfanyl-4-pregnene-3,20-dione], the “% total apoptosis” value in test [1] (setting [5]) was found to be 37.50%.

In the case of `C[C@]12CCC3C(C[C@@H]4C5=CC(=O)CC[C@@]53C[S+]4[O-])C1CCC2C(=O)CO` (stereo partly drawn) [Compound 4, 21-Hydroxy-6,19-sulfoxy-4-pregnene-3,20-dione], the “% total apoptosis” value in test [1] (setting [5]) worked out at 34.60%. Further, the “reduction of the luciferase/β galactosidase ratio” value in test [2] was “about 65%”.

On to `C[C@]12CCC3C(C[C@@H]4C5=CC(=O)CC[C@@]53CS4(=O)=O)C1CCC2C(=O)CO` (stereo partly drawn) [Compound 5, 21-Hydroxy-6,19-sulfone-4-pregnene-3,20-dione], for which the “% total apoptosis” value in test [1] (setting [5]) amounted to 31.40%.

For the molecule `C[C@]12CCC3C(C[C@H]4OC[C@@]35CCC(=O)C=C45)C1CCC2C(=O)CO` (stereo partly drawn) [Compound 21OH-6OP, 21-hydroxy-6,19-oxidoprogesterone], in test [1] (setting [5]), the “% total apoptosis” value was found to be 38.10%. The “cross-reaction with uterus-PR” value in test [3] is recorded as “does not substantially cross-react”. Besides, the “cross-reaction with kidney-MR” value in test [4] is recorded as “does not substantially cross-react”.

For `C[C@@H]1C[C@H]2[C@@H]3CCC4=CC(=O)C=C[C@]4(C)[C@@]3(F)[C@@H](O)C[C@]2(C)[C@@]1(O)C(=O)CO` [Dexamethasone], the “% total apoptosis” value in test [1] (Dexamethasone 10^−8 M alone, thymocytes 4 h at 37° C.) was 40.40%.

Turning to `CC#C[C@]1(O)CC[C@H]2[C@@H]3CCC4=CC(=O)CCC4=C3[C@@H](c3ccc(N(C)C)cc3)C[C@@]21C` [RU-486, 11-(4-Dimethylamino-phenyl)-17-hydroxy-13-methyl-17-prop-1-ynyl-1,2,6,7,8,11,12,13,14,15,16,17-dodecahydro-cyclopenta[α]phenanthren-3-one], the “% total apoptosis” value in test [1] (Dexamethasone 10^−8 M + reference compound 10^−6 M, 4 h at 37° C.) was 35.50%.
